Experiments:
HCC827 cells [1] = assay: crystal violet staining of viable HCC827 cells, gefitinib and HGF; format: cell-based; conditions: 10 days, gefitinib 1 uM, HGF 50, 10 or 2 ng/ml (FIG. 10 bottom)
Method: […] cells were seeded in a 10 cm petri dish and treated with the indicated conditions for 10 days. Gefitnib was used at 1 uM, and HGF was used at 50, 10, or 2 ng/ml. The plates were then stained with crystal violet to visualize viable cells.

HCC827 cells [2] = assay: MTS survival assay of HCC827 cells with HGF in the presence of gefitinib; format: cell-based; conditions: 50 ng/ml of HGF (FIG. 10 top left)
Source text: MET activity was induced by treating HCC827 cells with its ligand, HGF (hepatocyte growth factor).

HCC827 cells [3] = assay: Western blot of AKT phosphorylation in HCC827 treated with gefitinib and HGF; format: cell-based; conditions: gefitinib alone or with HGF, 6 hours (FIG. 10 top right)
[4] = test system: ERBB3 and Gab1 association with p85 in HCC827 GR cells; assay: anti-p85 immunoprecipitation in HCC827 GR cells; format: cell-based; conditions: 1 μM each drug, 6 hours (FIG. 2C)
HCC827 GR cells [5] = assay: MTS survival assay, gefitinib-resistant HCC827 GR cells; conditions: HCC827 GR cell lines / GR5; single drugs or combination
Method: This assay, a colorimetric method for determining the number of viable cells, is based on the bioreduction of 3-(4,5-dimethylthiazol-2-yl)-5-(3-carboxymethoxyphenyl)-2-(4-sulfophenyl)-2H-tetrazolium (MTS) by cells to a formazan product that is soluble in cell culture medium, can be detected spectrophotometrically and was performed according to previously established methods (3, 31, 10).
All experimental points were set up in six to twelve wells and all experiments were repeated at least three times. […] The curves were fitted using a non-linear regression model with a sigmoidal dose response.

[6] = test system: EGFR mutant HCC827 cells and ERBB2 amplified BT474 cells; assay: p85 immunoprecipitation and Western blot in control cell lines HCC827 and BT474; format: cell-based; conditions: 1 μM, 6 hours (FIG. 3A)
[7] = test system: CHO cells co-expressing MET and ERBB3; conditions: PHA-665,752 1 μM
Method: Lysates were immunoprecipitated with anti-p85 antibodies and the immunoprecipitates were probed with anti-phospho-tyrosine, anti-ERBB-3 and anti-p85 antibodies (* indicates ERBB3 on the PTyr blot). In parallel, the lysates were analyzed by Western blotting and probed with the indicated antibodies. […] Lentiviral shRNA constructs containing a scrambled (SC) sequence, ERBB3 specific sequence, a control sequence (CTRL) or GFP were infected into SNU638 cells (Methods). Seventy-two hours following infection, the cells were lysed and probed with indicated antibodies. […] C. […] Growth of SNU-638 cells was assayed by an MTS assay 5 days following infection of shRNA constructs in B. Growth is normalized to the SC shRNA. […] The resulting proteins were lysed and probed with the indicated antibodies. […] The resulting lysates were probed with either ERBB3 or MET.

HCC827 GR cells [8] = assay: Western blot of EGFR/ERBB3/PI3K/Akt signaling in HCC827 GR cells; format: cell-based; conditions: 1 μM each drug, 6 hours (FIG. 2B)
[9] = test system: H1993 NSCLC cells, SNU638 and MKN45 gastric cancer cells; assay: p85 immunoprecipitation and Western blot in MET amplified cell lines; conditions: 1 μM, 6 hours (FIG. 3A)
Method: Lysates were immunoprecipitated with anti-p85 antibodies and the immunoprecipitates were probed with anti-phospho-tyrosine, anti-ERBB-3 and anti-p85 antibodies (* indicates ERBB3 on the PTyr blot). In parallel, the lysates were analyzed by Western blotting and probed with the indicated antibodies.
Cells grown under the previously specified conditions were lysed in the following lysis buffer: 20 mM Tris, pH 7.4/150 mM NaCl/1% Nonidet P-40/10% glycerol/1 mM EDTA/1 mM EGTA/5 mM sodium pyrophosphate/50 mM NaF/10 nM (3-glycerophosphate/1 mM sodium vanadate/0.5 mM DTT/4 μg/ml leupeptin/4 μg/ml pepstatin/4 μg/ml apoprotein/1 mM PMSF. After cell lysis, lysates were centrifuged at 16,000×g for 5 min at 4° C. The supernatant was used for subsequent procedures. Western blot analyses were conducted after separation by SDS/PAGE electrophoresis and transfer to nitrocellulose membranes. Immunoblotting was performed according to the antibody manufacturers' recommendations. Antibody binding was detected using an enhanced chemiluminescence system (New England Nuclear Life Science Products Inc.).
Anti-ErbB-3 antibody was obtained from Lab Vision. […] The total Met (C-28) antibody was purchased from Santa Cruz Biotechnology (Santa Cruz, Calif.).

Molecule	viable cells (crystal violet) (HCC827 cells [1])	survival in the presence of gefitinib (MTS) (HCC827 cells [2])	AKT phosphorylation (HCC827 cells [3])	co-precipitation of ERBB3 and Gab1 with p85 [4]	growth of HCC827 GR cells under drug (MTS) (HCC827 GR cells [5])	PI3K signaling [6]	ERBB3 phosphorylation ([7]; CHO co-expressing MET and ERBB3, gefitinib 3 mM (so in the source), lapatinib 3 μM, PP2 10 μM, 6 hours (FIG. 3D))	p85 co-precipitation with ERBB3 ([7]; CHO transfected with MET and ERBB3, gefitinib 3 μM, lapatinib 3 μM (FIG. 3E))	ERBB3 and Akt phosphorylation (HCC827 GR cells [8])	ERBB3 and Akt phosphorylation (HCC827 GR cells [8]; listed as PHA-665752)	ERBB3 and Akt phosphorylation [9]	ERBB3 association with p85 [9]
HGF: hepatocyte growth factor, ligand of MET	increases with increased concentrations	markedly improved survival	at least partially reversed									
Cc1[nH]c(/C=C2\C(=O)Nc3ccc(S(=O)(=O)Cc4c(Cl)cccc4Cl)cc32)c(C)c1C(=O)N1CCC[C@@H]1CN1CCCC1 [PHA-665,752]				blocks Gab-1 association with p85	resistant	has no effect on PI3K signaling	blocked	inhibited	minimal effect on P-Akt levels	no significant effect on p-ERBB3 or p-AKT	only inhibited	disrupted
CC#CC(=O)Nc1ccc2ncnc(Nc3cccc(Br)c3)c2c1 [CL-387,785]					did not suppress the growth							
